PMC10341549, “Inhibitory Investigations of Acyl-CoA Derivatives against Human Lipoxygenase Isozymes” (International Journal of Molecular Sciences, 2023)
Entries after “also recorded” stand apart in the source; their conditions may differ.

Legend:
Format in all cases: biochemical
[1] = target: T1, h15-LOX-2 (Homo sapiens, UniProt O15296); test: Kinetic investigation of oleoyl-CoA (18:1) inhibition of h15-LOX-2
T1 construct: His tag; made in house
T1 sequence (O15296 1-676): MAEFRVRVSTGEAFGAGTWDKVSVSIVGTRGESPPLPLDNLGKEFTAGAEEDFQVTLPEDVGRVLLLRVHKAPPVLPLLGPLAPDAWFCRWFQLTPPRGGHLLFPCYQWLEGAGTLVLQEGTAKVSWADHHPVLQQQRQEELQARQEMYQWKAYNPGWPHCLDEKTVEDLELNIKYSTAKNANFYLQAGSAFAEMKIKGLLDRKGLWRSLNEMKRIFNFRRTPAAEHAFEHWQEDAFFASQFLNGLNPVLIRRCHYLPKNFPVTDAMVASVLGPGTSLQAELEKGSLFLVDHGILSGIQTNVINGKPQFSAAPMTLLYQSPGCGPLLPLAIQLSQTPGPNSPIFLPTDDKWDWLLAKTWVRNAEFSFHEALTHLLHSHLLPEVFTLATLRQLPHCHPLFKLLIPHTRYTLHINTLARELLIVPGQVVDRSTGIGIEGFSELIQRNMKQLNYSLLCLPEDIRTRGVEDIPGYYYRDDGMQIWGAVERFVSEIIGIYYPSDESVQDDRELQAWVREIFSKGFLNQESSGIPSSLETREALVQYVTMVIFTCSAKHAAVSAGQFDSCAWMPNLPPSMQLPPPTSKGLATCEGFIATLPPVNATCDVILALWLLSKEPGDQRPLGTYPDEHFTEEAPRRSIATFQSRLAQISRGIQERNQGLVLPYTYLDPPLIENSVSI
Method: (1) 1/v=(αKM/kcat)[([I]+Ki)/(β[I]+αKi)]×1/[S]+1/kcat×[([I]+αKi)/(β[I]+αKi)] (2) KM(app)=αKM[([I]+Ki)/[…]] (3) kcat/KM=(kcat/αKM)[(β[I]+αKi)/([I]+Ki)] (4) kcat=kcat[(β[I]+αKi)/([I]+αKi)]
These two parameters were then utilized to fit Equation (3) relative to kcat/KM (app), which yielded a β value of 0.26 +/− 0.23 (Figure 2). Given the high error for the β value, β was also determined by applying the values for α and Ki from the KM (app) plot to Equation 4 and fitted to the kcat data (Figure 3). This fit yielded a β value of 0.30 +/− 0.07, consistent with the Equation 3 fit but with a lower error value. These kinetic values indicate hyperbolic allostery, α > 1 (K-type inhibition) and β < 1 (V-type inhibition), with the kinetic change being equally observed in both KM (α = 3.2 +/− 1) and kcat (β = 0.30 +/− 0.07). […] It should be noted that the Ki values from our hyperbolic fits (82 +/− 70 nM) were dramatically lower than those determined from IC50 measurements (620 ± 60 nM), which is consistent with the more accurate nature of the hyperbolic fits relative to the IC50 fits, due to the oversimplification of the IC50 analysis.
The reactions were carried out in 25 mM HEPES buffer (pH 7.5), 0.01% Triton X-100. […] Reactions were performed at 22 °C in a 1 cm^2 quartz cuvette containing 2 mL of the according buffer for no longer than 2 min to avoid any cleavage of the acyl-coenzyme A. Using a Cary-UV Vis spectrophotometer, the fastest rates over 15 s intervals were recorded. Kinetic values were obtained by plotting the rate against the substrate concentration, followed by a hyperbolic saturation curve fit. The saturation curve fits were performed in triplicate and on separate days to ensure there was no bias. The equations used to find kinetic values were from previous studies.

[2] = target: T2, h15-LOX-1 (Homo sapiens, UniProt P16050); test: Substrate activity and kinetic parameters with h15-LOX-1; settings: acyl-CoAs tested at 70 µM, change in absorbance at 234 nm
T2 construct: His tag; made in house
T2 sequence (P16050 1-662): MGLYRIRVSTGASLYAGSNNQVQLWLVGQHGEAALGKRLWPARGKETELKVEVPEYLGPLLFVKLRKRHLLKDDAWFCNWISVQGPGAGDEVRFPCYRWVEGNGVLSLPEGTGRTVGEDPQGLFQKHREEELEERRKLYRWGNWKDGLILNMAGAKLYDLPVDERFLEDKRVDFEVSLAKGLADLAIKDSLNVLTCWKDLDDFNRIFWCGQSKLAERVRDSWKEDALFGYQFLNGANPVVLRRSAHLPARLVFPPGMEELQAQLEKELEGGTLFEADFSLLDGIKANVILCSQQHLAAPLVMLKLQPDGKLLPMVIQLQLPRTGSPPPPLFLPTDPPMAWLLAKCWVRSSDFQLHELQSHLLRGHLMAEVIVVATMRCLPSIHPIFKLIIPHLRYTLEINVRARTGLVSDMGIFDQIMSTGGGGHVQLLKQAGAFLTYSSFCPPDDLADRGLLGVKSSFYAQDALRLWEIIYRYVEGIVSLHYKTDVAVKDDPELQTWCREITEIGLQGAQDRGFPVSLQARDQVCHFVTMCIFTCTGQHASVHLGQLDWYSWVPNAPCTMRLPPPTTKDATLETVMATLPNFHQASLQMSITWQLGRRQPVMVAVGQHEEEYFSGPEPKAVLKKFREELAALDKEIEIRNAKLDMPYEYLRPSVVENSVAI
Method: Considering that some of these acyl-CoAs could potentially be substrates for LOX isozymes, each acyl-CoA was tested at 70 µM against each LOX isozyme to establish the possibility of catalysis.
The same buffer as used to determine IC50 values for h5-LOX was used for product determination. Turnover was monitored by absorbance at 234 nm.

[3] = target: T2, h15-LOX-1; test: as above
[4] = h15-LOX-1, compared with published values [31]

Row | SMILES | Type of inhibition of h15-LOX-2 [1] | β (the change in kcat), Equation 4 fit ([1]; fit of kcat data) | β (the change in kcat), Equation 3 fit ([1]; fit of kcat/KM (app)) | Ki ([1]; h15-LOX-2, substrate AA, pH 7.5, 22 °C, read-out: Ki (allosteric, hyperbolic fit of KM (app), Equation 2)) [nM] | Substrate activity with h15-LOX-1 [2] | Substrate activity with h15-LOX-1 ([2]; listed as linoleoyl-CoA (18:2)) | Km ([3]; as substrate of h15-LOX-1, 22 °C) [µM] | kcat ([3]; as substrate of h15-LOX-1, 22 °C, listed as linoleoyl-CoA) | kcat ([3]; as substrate of h15-LOX-1, 22 °C, listed as linoleoyl-CoA (18:2)) [s⁻¹] | kcat fold less than free linoleic acid [3, 4] [fold] | kcat/KM fold less than free linoleic acid [3, 4] [fold]
1 | CCCCCCCC/C=C\CCCCCCCC(=O)SCCNC(=O)CCNC(=O)[C@H](O)C(C)(C)COP(=O)(O)OP(=O)(O)OC[C@H]1O[C@@H](n2cnc3c(N)ncnc32)[C@H](O)[C@@H]1OP(=O)(O)O [Oleoyl-CoA (18:1), oleoyl-coenzyme A (18:1)] | allosteric inhibition (i.e., partial inhibition) | 0.30 +/− 0.07 | 0.26 +/− 0.23 | 82 |  |  |  |  |  |  | 
2 | CCCCC/C=C\C/C=C\CCCCCCCC(=O)SCCNC(=O)CCNC(=O)[C@H](O)C(C)(C)COP(=O)(O)OP(=O)(O)OC[C@H]1O[C@@H](n2cnc3c(N)ncnc32)[C@H](O)[C@@H]1OP(=O)(O)O [Linoleoyl-CoA (18:2), linoleoyl-CoA] |  |  |  |  | (Substrate) | substrates; also recorded: rapid substrate | 12 | 7.5 (0.4) s^−1 | 7.5 ± 0.4 | 1.3 | 7
